Data set [1] concerns monoamine transmitters (NA, DA and 5-HT). Briefly: In vivo brain microdialysis of monoamines in striatum and frontal cortex. Details: species or system rat. Particulars: rats; for response vs control in vivo at 50 µmol/kg: Rattus norvegicus, sc. From the text:
The microdialysis technique (See, for instance, Collin and Ungerstedt, Microdialysis: user's guide, Carnegie Medicin, Stockholm, 1988) is a well-established technique for measuring extracellular levels of neurotransmitters (Ungerstedt, J Int Med, 1991, 230; 365-73). The microdialysis technique was used to measure the effect of compounds disclosed herein upon the efflux of monoamine transmitters (NA, DA and 5-HT) in striatum and frontal cortex in conscious, freely moving rats.
Male Sprague-Dawley rats weighing 280-320 g were used throughout the experiments. Before the experiment the animals were housed in groups, maximum five animals in each cage, with free access to water and food. The animals were housed at least one week prior to surgery and use in the experiments.
A modified version (Waters et al., J Neural Transm Gen Sect, 1994, 98(1); 39-55) of the I-shaped probe (Santiago and Westerink, N-S Arch Pharmacol, 1990, 342; 407-14) with the AN69 polyacrylonitrile/sodium methyl sulfonate copolymer (HOSPAL; o.d/i.d. 310/220 μm: dialysis membrane (Gambro, Lund, Sweden) was used in the microdialysis experiments. In the dorsal striatum, probes with an exposed length of 3 mm of dialysis membrane were used and in the prefrontal cortex the corresponding length was 2.5 mm. The rats were operated under isoflurane inhalation anesthesia while mounted into a Kopf stereotaxic instrument. Coordinates were calculated relative to bregma; dorsal striatum AP+1.0, ML±2.6, DV 6.2; Pf cortex, AP 15+3.2, ML+1.2, DV −4.08°, according to Paxinos and Watson (New York, Academic Press, 1986; FIG. 8 and FIG. 14). The dialysis probe was positioned in a burr hole under stereotaxic guidance and cemented with phosphatine dental cement (DAB Dental).
The rats were housed individually in cages for 48 h before the dialysis experiments, allowing them to recover from surgery and minimizing the risk of drug interactions with the anesthetics during the following experiments. During this period the rats had free access to food and water.
On the day of the experiment the rats were connected to a micro-perfusion pump via a swivel and were replaced in the cage where they could move freely within its confinements. The perfusion medium was a Ringer's solution containing (in mmol/I): NaCl; 140, CaCl2; 1.2, KCl; 3.0, MgCl2; 1.0 (Moghaddam and Bunney. Neurochem., 1989, 53; 652-4). The pump was set to a perfusion speed of 2 μl/min and 40 μl sample volume were collected every 20 min.
The rats were perfused for at least 40 min before sampling began. Five fractions of each 20 min were collected and the last three were used for the establishment of the baseline. After collection of baseline fractions, the pharmacological challenge to the dialysis experiment started. Test compounds were administrated by injection (s.c.) in a volume of 5 ml/kg, with 0.9% NaCl (saline) as vehicle.
The analytical method were based on two chromatographic separations dedicated for amines or acids. Two chromatographic systems shared a common auto injector with a 10-port valve and two sample loops for simultaneous injection on the two systems.
The acids were separated by reversed phase chromatography while the amines were separated by reversed phase ion pairing chromatography preceded by a reverse phase separation in a column switching configuration. Three separation columns (Luna C18 (2), dp 3 μm, 2 mm i.d., Phenomenex) of different lengths were used. Electrochemical detection was accomplished on glassy carbon electrodes (MF-1000, Bioanalytical Systems, Inc.)
The aqueous mobile phase (0.6 ml/min) for the acid system contained citric acid (40 mM, dipotassium hydrogen phosphate 10 mM, methanol 8-11% (v/v) and EDTA 0.1 mM. Column length was 30 mm and detection potential relative to Ag/AgCl reference was 0.74V. […]

[2] abbreviates: 50 μmol/kg s.c., frontal cortex dialysate, read-out: 5-HT FC ± SEM, maximum effect compared to baseline.
The mark [3] stands for this setting: 50 μmol/kg s.c., frontal cortex dialysate, read-out: DA FC ± SEM, maximum effect compared to baseline.
Where [4] appears, read: 50 μmol/kg s.c., striatum dialysate, read-out: DA Stri ± SEM, maximum effect compared to baseline.
Where [5] appears, read: 50 μmol/kg s.c., frontal cortex dialysate, read-out: NA FC ± SEM, maximum effect compared to baseline.
Setting [6] is: 50 μmol/kg s.c., striatum dialysate, read-out: 5-HT Stri ± SEM, maximum effect compared to baseline.
Setting [7] is: 50 μmol/kg s.c., striatum dialysate.
Setting [8] is: 16.7 μmol/kg s.c., frontal cortex dialysate, Fumarate Salt.
Setting [9] is: 16.7 μmol/kg s.c., striatum dialysate, Fumarate Salt.

Structures can show the parent of a compound that is named as a salt. Where two headings read alike, the source gives them in different places. Marks after values point to notes of the source that are not given here.

For the compound `CCN1CC(C(F)c2cc(F)cc(F)c2F)C1` (stereo not drawn) [Example 22, 1-Ethyl-3-[Fluoro(2,3,5-Trifluorophenyl)Methyl]Azetidine Oxalate Salt], the response vs control in vivo at 50 µmol/kg in data set [1] (setting [2]) is 140%; in data set [1] (setting [3]), 654 ± 212%; in data set [1] (setting [4]) it was 158%.

Consider `Fc1ccc(C(F)C2CNC2)c(F)c1F` (stereo not drawn) [Example 11, 3-[Fluoro(2,3,4-Trifluorophenyl)Methyl]Azetidine Oxalate Salt], for which the response vs control in vivo at 50 µmol/kg was 236% in data set [1] (setting [2]); 263% in data set [1] (setting [3]); 342% in data set [1] (setting [5]); 366% in data set [1] (setting [6]); 85 ± 14% in data set [1] (setting [4]).

Consider `Fc1ccc(C(F)C2CNC2)c(F)c1` (stereo not drawn) [Example 8, 3-[(2,4-Difluorophenyl)(Fluoro)Methyl]Azetidine Oxalate Salt], for which the response vs control in vivo at 50 µmol/kg turned out to be 428 ± 118% in data set [1] (setting [2]); 549 ± 163% in data set [1] (setting [3]); 400 ± 28% in data set [1] (setting [5]); 402 ± 12% in data set [1] (setting [6]); 133 ± 15% in data set [1] (setting [4]).

The term melting point denotes the temperature, or range, at which the solid turns liquid. `CCN1CC(C(F)c2c(F)c(F)cc(F)c2F)C1.O=C(O)C(=O)O` (stereo not drawn) (hydrate or solvate): the melting point was 145.9 °C.

In turn, `CCN1CC(C(F)c2cc(F)c(F)c(F)c2)C1.O=C(O)C(=O)O` (stereo not drawn) (hydrate or solvate) displayed a melting point of 129.8 °C.

The compound `CCCN1CC(C(F)c2cc(F)cc(F)c2F)C1.O=C(O)C(=O)O` (stereo not drawn) (hydrate or solvate) registered a melting point of 159 °C.

In the case of `Fc1cc(C(F)C2CNC2)cc(F)c1F` (stereo not drawn) [Example 12, 3-[Fluoro(3,4,5-Trifluorophenyl)Methyl]Azetidine Oxalate Salt], the response vs control in vivo at 50 µmol/kg in data set [1] (setting [2]) is 322 ± 4%; in data set [1] (setting [3]), 252 ± 70%; in data set [1] (setting [5]), 214 ± 28%; in data set [1] (setting [6]), 359 ± 105%; in data set [1] (setting [4]), 131%.

In the case of `CCN1CC(C(F)c2cc(F)cc(F)c2)C1` (stereo not drawn) [Example 19, 3-[(3,5-Difluorophenyl)(Fluoro)Methyl]-1-Ethylazetidine Oxalate Salt], the response vs control in vivo at 50 µmol/kg in data set [1] (setting [2]) was determined as 212 ± 15%; in data set [1] (setting [3]), 399 ± 30%; in data set [1] (setting [5]), 354 ± 54%; in data set [1] (setting [6]), 170 ± 63%; in data set [1] (setting [4]), 144 ± 10%.

Take `Fc1cc(F)c(F)c(C(F)C2CNC2)c1F.O=C(O)C(=O)O` (stereo not drawn) (hydrate or solvate): the melting point was 181.6 °C.

As to `CCN1CC(C(F)c2cccc(F)c2F)C1` (stereo not drawn) [Example 16, 3-[(2,3-Difluorophenyl)(Fluoro)Methyl]-1-Ethylazetidine Hydrochloric Acid Salt], the response vs control in vivo at 50 µmol/kg in data set [1] (setting [2]) came to 197 ± 124%; in data set [1] (setting [3]), 229 ± 23%; in data set [1] (setting [5]) it was 272 ± 58%; in data set [1] (setting [6]), 313 ± 23%; in data set [1] (setting [4]), 139 ± 4%.

Consider `Fc1cc(F)c(F)c(C(F)C2CNC2)c1.O=C(O)C(=O)O` (stereo not drawn) [Example 9, 3-[Fluoro(2,3,5-Trifluorophenyl)Methyl]Azetidine Oxalate Salt], for which, in data set [1] (setting [7]), the “NA Stri ± SEM, maximum effect compared to baseline” value is 860^a percent of control. Moreover, the response vs control in vivo at 50 µmol/kg in data set [1] (setting [2]) was 207 ± 21%; in data set [1] (setting [5]), 840 ± 122%; in data set [1] (setting [6]), 231 ± 106%; in data set [1] (setting [4]), 127 ± 13%.

Turning to `Cl.Fc1ccc(C(F)C2CNC2)cc1F` (stereo not drawn) [Example 5, 3-[(3,4-Difluorophenyl)(Fluoro)Methyl]Azetidine Hydrochloric Acid Salt], the “NA Stri ± SEM, maximum effect compared to baseline” value in data set [1] (setting [7]) is on record as 480^a percent of control. The response vs control in vivo at 50 µmol/kg in data set [1] (setting [2]) amounted to 234%; in data set [1] (setting [3]) it was 330 ± 75%; in data set [1] (setting [6]), 435 ± 61%; in data set [1] (setting [4]), 136 ± 4%.

For `CCCN1CC(C(F)c2cc(F)cc(F)c2)C1` (stereo not drawn) [Example 20, 3-[(3,5-Difluorophenyl)(Fluoro)Methyl]-1-Propylazetidine Oxalate Salt], the response vs control in vivo at 50 µmol/kg in data set [1] (setting [2]) came out at 171%; in data set [1] (setting [3]) it was 362%; in data set [1] (setting [5]) it was 264%; in data set [1] (setting [6]), 145%; in data set [1] (setting [4]) it was 111%.

Take `Fc1cccc(F)c1C(F)C1CNC1` (stereo not drawn) [Example 7, 3-[(2,6-Difluorophenyl)(Fluoro)Methyl]Azetidine Oxalate Salt]: the response vs control in vivo at 50 µmol/kg in data set [1] (setting [2]) worked out at 404 ± 21%; in data set [1] (setting [3]) it was 860 ± 283%; in data set [1] (setting [5]), 570 ± 6%; in data set [1] (setting [6]) it was 213%; in data set [1] (setting [4]) it was 130%.

Regarding `CCCN1CC(C(F)c2cccc(F)c2F)C1.O=C(O)C(=O)O` (stereo not drawn) (hydrate or solvate), the melting point came to 137.4 °C.

For the compound `Fc1cc(F)cc(C(F)C2CNC2)c1.O=C(O)/C=C/C(=O)O` (single isomer, unassigned; (+)) [Example 4, (+)-3-[(3,5-Difluorophenyl)(Fluoro)Methyl]Azetidine Fumarate Salt], in data set [1] (setting [8]), the “5-HT FC ± SEM, maximum effect compared to baseline” value is on record as 170^a percent of control; the “DA FC ± SEM, maximum effect compared to baseline” value is given as 226^a percent of control; the “NA FC ± SEM, maximum effect compared to baseline” value was 198^a percent of control. In data set [1] (setting [9]), the “5-HT Stri ± SEM, maximum effect compared to baseline” value is 198^a percent of control; the “DA Stri ± SEM, maximum effect compared to baseline” value is listed as 116^a percent of control; the “NA Stri ± SEM, maximum effect compared to baseline” value is recorded as 122^a percent of control.

Compound `Fc1cc(F)c(C(F)C2CNC2)c(F)c1.O=C(O)C(=O)O` (stereo not drawn) (hydrate or solvate) returned a melting point of 149.6 °C.

The values above are taken from patent US10087142B2, “Azetidine derivatives useful as modulators of cortical cathecolaminergic neurotransmission” (Integrative Research Laboratories Sweden AB, priority 2015, dated 2018).
